The subject of one experiment is ERK phosphorylation. The experiment is described as follows: Analysis of ERK phosphorylation (Alphascreen SureFire Phospho-ERK 1/2). Format: cell-based, human and mouse. As to conditions: read-out: Minimum concentration (nM) required for ≧80% inhibition of pERK. A digest of the protocol: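 Human melanoma and human and mouse colon cancer cells were exposed to compounds for 1 h. Phospho-ERK1/2 was read by AlphaScreen SureFire. Percent inhibition was calculated from RFU relative to vehicle-treated and lysis-buffer controls.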
In general terms: Bead proximity is the source of the signal in Alpha formats.

In experiment [1] the test system is MEK phosphorylation (S218 and S222). Description: Analysis of B-Raf-mediated MEK phosphorylation (Alphascreen SureFire Phospho-MEK). As to conditions: read-out: % Inhibition of MEK phosphorylation, 1 h. Format: cell-based, human. The protocol:
This assay was carried out with human melanoma cells. Cells were treated for 1 h with various concentrations of test compounds. MEK phosphorylation (S218 and S222) analysis was performed using the Alphascreen SureFire Phospho-MEK Kit (Perkin Elmer), by following the manufacturer's instructions. % inhibition of […] phosphorylation was determined as: 100−{(RFU test−RFU lysis buffer control)/(RFU vehicle treated control−RFU lysis buffer control)}×100.

Where [2] appears, read: cells treated for 1 h, human melanoma cells, human and mouse colon cancer cells.
[3] abbreviates: 1 nM, human melanoma cells, read-out: % Inhibition of MBK phosphorylation.
[4] abbreviates: 10 nM, human melanoma cells, read-out: % Inhibition of MBK phosphorylation.
The mark [5] stands for this setting: 100 nM, human melanoma cells, read-out: % Inhibition of MBK phosphorylation.

Where two headings read alike, the source gives them in different places.

As a reminder, the inhibition is the change of the read-out against control, counted positive when it falls.

Regarding `Cc1c(=O)n(C)c(Nc2ccc(I)cc2F)c2c(=O)n(C)c(=O)n(-c3cccc(OCC(N)=O)c3)c12` [Compound 57, 2-(3-(5-((2-fluoro-4-iodophenyl)amino)-3,6,8-trimethyl-2,4,7-trioxo-3,4,6,7-tetrahydropyrido[4,3-d]pyrimidin-1(2H)-yl)phenoxy)acetamide], the IC80 with ERK phosphorylation (setting [2]) lay in the range of 1 to 3 nM. Moreover, the inhibition at 0.001 µM in experiment [1] (setting [3]) is 63.3%. Further, in experiment [1] (setting [4]), the inhibition at 0.01 µM was 76.4%. For the same compound, the inhibition at 0.1 µM in experiment [1] (setting [5]) is 83%.

On to `Cc1c(=O)n(C)c(Nc2ccc(I)cc2F)c2c(=O)[nH]c(=O)n(-c3cccc(C4(C(N)=O)CC4)c3)c12` [Compound 77, 1-(3-(5-((2-fluoro-4-iodophenyl)amino)-6,8-dimethyl-2,4,7-trioxo-3,4,6,7-tetra hydropyrido[4,3-d]pyrimidin-1(2H)-yl)phenyl)cyclopropanecarboxamide], for which, in the experiment on ERK phosphorylation (1 h), the IC80 was in the range of 0.1 to 0.9 nM. In experiment [1] (Homo sapiens), the inhibition at 0.001 µM is 49%, the inhibition at 0.01 µM was 67.8% and the inhibition at 0.1 µM is 85.5%.

For `Cc1c(=O)n(C)c(Nc2ccc(I)cc2F)c2c(=O)n(C3CC3)c(=O)n(-c3cccc(C4(C(N)=O)CC4)c3)c12` [Compound 78, 1-(3-(3-cyclopropyl-5-((2-fluoro-4-iodophenyl)amino)-6,8-dimethyl-2,4,7-trioxo-3,4,6,7-tetrahydropyrido[4,3-d]pyrimidin-1(2H)-yl)phenyl)cyclopropanecarboxamide], the IC80 with ERK phosphorylation (setting [2]) was in the range of 0.1 to 0.9 nM. Further, the inhibition at 0.001 µM in experiment [1] (setting [3]) was 42.6%. The inhibition at 0.01 µM in experiment [1] (setting [4]) came to 56.7%. For the same compound, the inhibition at 0.1 µM in experiment [1] (setting [5]) is 75.4%.
